The supplement of paper PMC10307832

Key:
Assay in all cases: relative viability (nuclei count vs DMSO), 5 days (fraction); higher = more cells survive
[1] = compound: CCOC(=O)CCNc1cc(N2CCc3ccccc3CC2)nc(-c2ccccn2)n1 [GSK-J4] + COc1cc2c(Oc3ccc(NC(=O)C4(C(=O)Nc5ccc(F)cc5)CC4)cc3F)ccnc2cc1OCCCN1CCOCC1 [Foretinib] (partner 0.25 µM)
In short: (§1)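 Lung cancer cell lines in 1536-well plates were dosed by pin tool the day after seeding, either with one drug alone or with a fixed anchor-drug dose plus five library-drug doses (not always all listed) in √10 steps. After 5 days, cells were fixed and their nuclei stained in one step (final 0.05% Triton X-100, 1% formaldehyde, 1 ug/ml Hoechst), then counted on 4× images. Relative viability is the nuclei count in treated wells divided by that in vehicle wells. Values are medians of duplicate plates.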

[2] = compound: CN1CCC(CC1)OC2=CC(=C(C=C2)NC3=NC=C4C(=N3)N(C(=O)N4C)C5CCCC5)OC [AZ3146] + CC(=O)Nc1cccc(-n2c(=O)n(C3CC3)c(=O)c3c(Nc4ccc(I)cc4F)n(C)c(=O)c(C)c32)c1 [Trametinib] (partner 0.02 µM)
In short: as §1

[3] = compound: CN1CCC(CC1)OC2=CC(=C(C=C2)NC3=NC=C4C(=N3)N(C(=O)N4C)C5CCCC5)OC [AZ3146] + CC1(C)CCC(c2ccc(Cl)cc2)=C(CN2CCN(c3ccc(C(=O)NS(=O)(=O)c4ccc(N[C@H](CCN5CCOCC5)CSc5ccccc5)c(S(=O)(=O)C(F)(F)F)c4)cc3)CC2)C1 [Navitoclax] (partner 0.5 µM)
In short: as §1

[4] = compound: CCOC(=O)CCNc1cc(N2CCc3ccccc3CC2)nc(-c2ccccn2)n1 [GSK-J4] + O=C(CCCCCCC(=O)Nc1ccccc1)NO [Vorinostat] (partner 1 µM)
In short: as §1

| Cell Line | relative viability ([1]; first compound 0.5 µM) | relative viability ([1]; first compound 1.581 µM) | relative viability ([1]; first compound 5 µM) | relative viability ([1]; first compound 15.81 µM) | relative viability ([1]; first compound 50 µM) | relative viability ([2]; first compound 0.08 µM) | relative viability ([2]; first compound 0.253 µM) | relative viability ([2]; first compound 0.8 µM) | relative viability ([2]; first compound 2.53 µM) | relative viability ([2]; first compound 8 µM) | relative viability ([3]; first compound 0.08 µM) | relative viability ([3]; first compound 0.253 µM) | relative viability ([3]; first compound 0.8 µM) | relative viability ([3]; first compound 2.53 µM) | relative viability ([3]; first compound 8 µM) | relative viability ([4]; first compound 0.5 µM) | relative viability ([4]; first compound 1.581 µM) | relative viability ([4]; first compound 5 µM) | relative viability ([4]; first compound 15.81 µM) | relative viability ([4]; first compound 50 µM) |
| --- | --- | --- | --- | --- | --- | --- | --- | --- | --- | --- | --- | --- | --- | --- | --- | --- | --- | --- | --- | --- |
| 201T | 1.1 | 1.09 | 1.07 | 0.923 | 1.06 | 0.718 | 0.728 | 0.73 | 0.677 | 0.685 | 1.19 | 1.2 | 1.16 | 1.27 | 1.2 | 0.927 | 0.828 | 0.939 | 0.896 | 0.891 |
| A549 | 0.84 | 0.874 | 0.907 | 0.911 | 0.828 |  |  |  |  |  | 1.12 | 1.29 | 1.23 | 0.467 | 0.0543 |  |  |  |  |  |
| A-427 | 1.05 |  | 1.11 | 0.532 | 0.218 | 0.76 | 0.753 | 0.747 | 0.751 | 0.545 | 0.96 | 0.967 | 0.957 | 0.98 | 0.943 | 0.814 | 0.518 |  | 0.785 | 0.393 |
| ABC-1 | 1.04 | 0.63 | 1.06 | 0.989 | 0.846 |  |  |  |  |  |  |  |  |  |  | 1.2 | 1.31 | 0.879 | 0.704 | 0.555 |
| BEN | 0.857 | 0.593 |  | 0.588 | 0.53 |  | 1 | 1.05 | 0.971 | 1.04 |  | 0.0708 | 0.0628 | 0.0467 | 0.176 | 0.559 | 0.46 | 0.511 | 0.571 | 0.505 |
| CAL-12T | 1.11 | 0.703 | 1.11 | 1.04 | 1.02 | 0.46 | 0.304 | 0.321 | 0.313 | 0.314 | 1.21 | 1.28 | 1.24 | 1.32 | 1.17 | 0.723 | 0.693 | 0.874 | 0.689 | 0.682 |
| COR-L23 | 0.927 | 0.901 |  | 0.897 | 0.822 | 0.587 | 0.646 | 0.56 | 0.718 | 0.6 | 1.05 | 1.08 | 0.984 | 1.03 | 0.923 | 0.474 | 0.442 |  | 0.413 | 0.361 |
| COR-L 105 | 1.13 | 0.877 | 0.834 | 1.02 | 0.969 | 0.471 | 0.414 | 0.477 | 0.427 | 0.353 | 0.805 | 0.712 | 0.745 | 0.791 | 0.711 | 0.899 |  | 0.833 | 0.843 | 0.526 |
| Calu-6 | 0.83 | 0.867 | 0.867 | 0.839 | 0.822 |  |  |  |  |  | 0.781 | 0.952 | 0.763 | 0.665 | 0.278 |  |  |  |  |  |
| ChaGo-K-1 | 0.995 | 0.907 | 0.971 | 0.895 | 0.72 | 0.826 | 0.895 | 0.836 | 0.892 | 0.957 | 1 | 1 | 0.897 | 0.996 | 0.672 | 0.785 |  | 0.619 | 0.673 | 0.668 |
| EBC-1 | 0.0939 | 0.0899 | 0.0897 | 0.0966 | 0.103 |  |  |  |  |  | 0.499 | 0.464 | 0.426 | 0.412 | 0.229 |  |  |  |  |  |
| EKVX | 0.757 | 0.221 | 0.754 | 0.315 | 0.908 | 0.331 | 0.305 | 0.202 | 0.345 | 0.332 | 0.817 | 0.907 | 0.898 | 1.02 | 1.16 | 0.686 |  | 0.808 |  | 0.524 |
| EMC-BAC-2 | 0.93 | 0.937 | 0.685 | 0.982 | 0.647 |  |  | 0.89 | 0.921 | 0.844 | 1.07 | 1.23 | 1.25 | 1.21 | 1.26 | 0.494 | 0.497 |  | 0.364 | 0.457 |
| EPLC-272H | 0.723 | 0.547 | 0.819 | 0.514 | 0.26 | 0.312 | 0.281 | 0.272 | 0.268 | 0.247 | 0.985 | 0.98 | 1.05 | 1.37 | 1.19 | 0.461 | 0.37 | 0.599 | 0.335 | 0.284 |
| H3255 | 0.856 | 0.85 | 0.846 | 0.844 | 0.804 | 0.649 | 0.57 | 0.555 | 0.614 | 0.544 | 0.527 | 0.35 | 0.582 | 0.628 | 0.467 | 0.716 |  | 0.656 | 0.742 | 0.742 |
| HARA | 0.863 |  |  | 0.805 | 0.751 | 0.708 | 0.491 | 0.634 | 0.858 | 0.623 | 1.13 | 1.08 | 1.13 | 1.13 | 1.11 | 0.554 | 0.498 |  | 0.311 | 0.246 |
| HCC-15 | 0.949 |  | 0.898 | 0.854 | 0.69 | 0.421 | 0.346 | 0.357 | 0.414 | 0.348 | 0.725 | 0.659 | 0.703 | 0.718 | 0.727 | 0.903 | 0.791 | 0.789 | 0.718 | 0.503 |
| HCC-44 |  |  |  |  |  | 1.07 | 1.02 | 0.996 | 1.04 | 1.15 | 0.877 | 1.04 | 0.985 | 1.01 | 1.01 | 1.01 | 1.09 | 1.09 | 1.14 | 1.16 |
| HCC-78 | 0.571 | 0.508 | 0.675 | 0.589 | 0.631 |  | 0.65 | 0.738 | 0.823 | 0.749 |  | 0.795 | 0.718 | 0.899 | 0.736 | 0.462 | 0.435 | 0.601 | 0.363 | 0.587 |
